We go through two molecules from patent US20210161857A1, “COMPOSITION AND METHOD FOR SUPPRESSING INCREASE IN BLOOD GLUCOSE LEVEL” (SUNTORY HOLDINGS LIMITED, priority 2018, published 2021).

A short description of series [1]: Glucose tolerance test after single intake of test substance. It counts as in vivo, Mice (C57BL/6J). The following applies: single oral intake 30 or 60 mg/kg, 30 min before oral glucose 1 g/kg; vs control group, at any time. The source says:
Evaluation of Action of Isoxanthohumol to Suppress an Increase in Blood Glucose Level by Single Intake
The effect of single intake of isoxanthohumol on the increase in blood glucose level after glucose intake was examined by the following procedure.
Xanthohumol and isoxanthohumol were the standard samples (purity of 95% or higher) obtained in Preparation Example 1. The “Dosage” in the table, indicates the dosage (mg) of the test substance per kg body weight. A dosing solution containing a mixture of the test substance and a solvent was used to administer the test substance. The solvent was a 0.5 wt % sodium carboxymethylcellulose (CMC) aqueous solution. The volume of the dosing solution was 10 mL/kg A 50 wt % glucose aqueous solution was used for glucose intake.
Mice (C57BL/6J, male, 7 weeks of age, CLEA Japan, Inc.) were purchased, and they were quarantined and acclimatized for one week. […] The selected animals were divided into groups (n=9 in each group) in the group structure shown in Table, 1 by the stratified continuous randomization method based on body weight at the end of the acclimatization period.
After grouping, each group was oral administered with the test substance as described in Table 1. […] Soon after blood drawing, the blood glucose level was measured using Glutest Neo Sensor (Sanwa Kagaku Kenkyusho Co., Ltd.). […]

Series [2] is described as follows: Glucose tolerance test after continuous intake (three weeks) in high-fat diet mouse model. The format is in vivo, Mice (C57BL/6J). The following applies: high fat diet mice, oral glucose 1 g/kg, vs high fat diet group. The source says: Evaluation of Action of Isoxanthohumol to Suppress an Increase in Blood Glucose Level by Continuous Intake
The effect of continuous intake of isoxanthohumol on the increase in blood glucose level after glucose intake was studied by the following procedure using a high-fat diet mouse model.
In the table, “Regular diet” is control diet “D12450J” (Research Diets), and “60 kcal % High-fat diet” is very high-fat diet “D12492” (Research Diets); Xanthohumol and isoxanthohumol were the standard samples (purity of 95% or higher) obtained in Preparation Example 1. The “Dosage” in the table indicates the dosage (mg) of the test substance per day per kg body weight. As in Reference Example 1, a dosing solution containing a mixture of the test substance and a solvent (a 0.5 wt % CMC aqueous solution) was used to administer the test substance. The volume of the dosing solution was 10 ml/kg. The amount of the test substance and the volume of the solution were calculated based on the latest body weight on the administration day of the test substance. A 50 wt % glucose aqueous solution was used for glucose intake.
Mice (C57BL/6J, male, 7 weeks of age, CLEA japan, Inc.) were purchased, and they were quarantined and acclimatized for one week. […] The selected animals were divided into groups (n=8 in each group) in the group structure shown in Table 2 by the stratified continuous randomization method based on body weight at the end of the acclimatization period. They were fed with free access to specific basic feed and water. The test substance was orally administered once a day for three weeks.
After fasting for six hours on the last administration day of the test substance, each group was subjected to oral glucose intake to an amount of 1 g per 1 kg body weight, and blood was drawn from the tail vein over time. Soon after blood drawing, the blood glucose level was measured using Glutest Neo Sensor (Sanwa Kagaku Kenkyusho Co., Ltd.).
Statistical processing was performed using Microsoft Office Excel 2003. A significant difference, was tested between the regular diet group and the high fat diet group by Student's t-test (significant level: 1% (p<0.01)). A significant difference was tested between the high fat diet group and each group excluding the regular diet group by Dunnett's multiple comparison test (significant level: 5% (p<0.05)).

For series [3] the following is noted: high temperature of 100° C.; cited from earlier work.
The conditions of series [4]: high-fat diet mouse model, cited from earlier work.
The conditions of series [5]: 10 mg/L mixed in drinking water, long-term breeding, high-fat diet mouse model; cited from earlier work.
For another series, the system named is 3T3-L1 adipose cells. As to conditions: cited from earlier work.
Setting [6] is: 30 mg/kg/day orally once a day for three weeks.
The mark [7] stands for this setting: 60 mg/kg/day orally once a day for three weeks.

Regarding `COc1cc(O)c(CC=C(C)C)c2c1C(=O)CC(c1ccc(O)cc1)O2` (centres unmarked) [isoxanthohumol], the “action to suppress an increase in blood glucose level” value in series [1] is listed as “did not show a significant action to suppress an increase in blood glucose level”; in series [2] (setting [6]), “tendency for a suppressed increase in blood glucose level”; in series [2] (setting [7]), “significant action to suppress an increase in blood glucose level”. For the same molecule, in series [3], the thermal stability entry is listed as “stable”.
Consider `COc1cc(O)c(CC=C(C)C)c(O)c1C(=O)/C=C/c1ccc(O)cc1` [xanthohumol], for which the “action to suppress an increase in blood glucose level” value is “did not show a significant action to suppress an increase in blood glucose level” in series [1], “No significant action to suppress an increase in blood glucose level” in series [2] (setting [6]) and “No significant action to suppress an increase in blood glucose level” in series [2] (setting [7]). For the same molecule, in series [4] (continuous administration 60 mg/kg/day), the “fasting blood glucose level” value is given as “decreases the fasting blood glucose level”. Further, in series [4] (continuous administration 30 or 60 mg/kg/day), the “fasting blood insulin level” value is “decreases the fasting blood insulin level”. Besides, the blood glucose level result in series [5] is given as “decrease in blood glucose level”. Besides, the secretion of adiponectin result in the series on 3T3-L1 adipose cells is “promote secretion of adiponectin”.
